Results published in publication PMC9241943, “LcCCL28-25, Derived from Piscine Chemokine, Exhibits Antimicrobial Activity against Gram-Negative and Gram-Positive Bacteria In Vitro and In Vivo” (Microbiology Spectrum, 2022).
≈ marks a conversion by molar mass, not a printed value. Residues, ends and D or L forms follow the SMILES beside them.

What was measured:
[1] = tested on: Methicillin-resistant S. aureus USA300; assay type: cell-based, Staphylococcus aureus; settings: USA300, 2 h
Procedure: (§1) The MIC assays were performed as previously described ([43]). Briefly, peptides were plated in a 2-fold dilution series (50 μL/well) of Mueller-Hinton broth (MHB) in Costar 96-well cell culture plates (Corning, NY, USA). Three repeats were set for each concentration. E. coli ATCC 25922, A. hydrophila ATCC 7966, P. aeruginosa PAO1, P. aeruginosa FRD1, S. aureus ATCC 25923, S. agalactiae ATCC 13813, S. pneumoniae ATCC 49619, methicillin-resistant S. aureus ATCC 43300, and methicillin-resistant S. aureus USA300 were cultured in Luria-Bertani (LB) medium, while K. pneumoniae CMCC46117 was cultured in tryptic soy broth (TSB) medium. Incubation was done at 37°C and 150 × g for 12 h. Bacteria were transferred to fresh MHB at a ratio of 1% (vol/vol) and incubated to reach a logarithmic growth phase. Then, 50 μL of a bacterial suspension at 4 × 10^6 CFU/mL was added to each well. […]

[2] = tested on: Methicillin-resistant S. aureus ATCC 43300; assay type: cell-based, Staphylococcus aureus; settings: ATCC 43300, 2 h
Procedure: as §1

P. aeruginosa FRD1 = assay type: cell-based, Pseudomonas aeruginosa; settings: FRD1, 2 h
Procedure: as §1

[3] = tested on: Escherichia coli ATCC 25922; assay type: cell-based; settings: ATCC 25922, 2 h
Procedure: as §1

[4] = tested on: Aeromonas hydrophila ATCC 7966; assay type: cell-based; settings: ATCC 7966, 2 h
Procedure: as §1

[5] = tested on: Streptococcus agalactiae ATCC 13813; assay type: cell-based; settings: ATCC 13813, 2 h
Procedure: as §1

[6] = tested on: Staphylococcus aureus ATCC 25923; assay type: cell-based; settings: ATCC 25923, 2 h
Procedure: as §1

[7] = tested on: Pseudomonas aeruginosa PAO1; assay type: cell-based; settings: PAO1, 2 h
Procedure: as §1

[8] = tested on: Klebsiella pneumoniae CMCC46117; assay type: cell-based; settings: CMCC46117, 2 h
Procedure: as §1

[9] = tested on: Streptococcus pneumoniae ATCC 49619; assay type: cell-based; settings: ATCC 49619, 2 h
Procedure: as §1

E. coli ATCC 25922 = assay: SYTOX green membrane permeability assay; assay type: cell-based, Escherichia coli; settings: E. coli ATCC 25922, 5 μM SYTOX green, read every 1 min
Procedure: The SYTOX green staining assay was performed to assess peptide-associated membrane damage ([47], [52]). E. coli ATCC 25922 and S. aureus ATCC 25923 cells in the mid-logarithmic phase were collected, washed thrice, and resuspended (5 × 10^7 CFU/mL) in buffer B (10 mM Tris-HCl, pH 7.4, at 25°C). The bacterial suspensions were mixed with 5 μM SYTOX green and incubated for 15 min at room temperature in the dark. Then, the mixtures were added to black, clear-bottom 96-well plates at a density of 100 μL/well. After peptide addition, SYTOX green uptake was monitored using an EnSpire multimode plate reader (PerkinElmer, Singapore) with an excitation wavelength of 485 nm and an emission wavelength of 520 nm. Each measurement interval was 1 min, totaling 30 to 60 times. Melittin was used as the positive control, while bovine serum albumin (BSA) was the negative control.

[10] = tested on: Staphylococcus aureus USA300; settings: S. aureus USA300
Procedure: The MIC assays were performed as previously described ([43]). Briefly, peptides were plated in a 2-fold dilution series (50 μL/well) of Mueller-Hinton broth (MHB) in Costar 96-well cell culture plates (Corning, NY, USA). Three repeats were set for each concentration. E. coli ATCC 25922, A. hydrophila ATCC 7966, P. aeruginosa PAO1, P. aeruginosa FRD1, S. aureus ATCC 25923, S. agalactiae ATCC 13813, S. pneumoniae ATCC 49619, methicillin-resistant S. aureus ATCC 43300, and methicillin-resistant S. aureus USA300 were cultured in Luria-Bertani (LB) medium, while K. pneumoniae CMCC46117 was cultured in tryptic soy broth (TSB) medium. Incubation was done at 37°C and 150 × g for 12 h. Bacteria were transferred to fresh MHB at a ratio of 1% (vol/vol) and incubated to reach a logarithmic growth phase. Then, 50 μL of a bacterial suspension at 4 × 10^6 CFU/mL was added to each well. After incubation at 37°C for 22 ± 2 h, turbidity was measured using an EnSpire multimode plate reader (PerkinElmer, Singapore) at 595 nm.

SMILES | MIC [1] | MIC [2] | MIC (P. aeruginosa FRD1) | MIC [3] | MIC [4] | MIC [5] | MIC [6] | MIC [7] | MIC [8] | MIC [9] | SYTOX green fluorescence intensity (E. coli ATCC 25922) | MIC in 6 μM NH4Cl ([10]; 6 μM NH4Cl) | MIC in 1 mM MgCl2 ([10]; 1 mM MgCl2) | MIC in 2.5 mM CaCl2 ([10]; 2.5 mM CaCl2) | MIC in 4.5 mM KCl ([10]; 4.5 mM KCl) | MIC in 150 mM NaCl ([10]; 150 mM NaCl) | MIC in MS at concn 10% ([10]; 10% mouse serum) | MIC in MS at concn 20% ([10]; 20% mouse serum) | MIC in MS at concn 40% ([10]; 40% mouse serum) | MIC in Control ([10]; control, bacteria treated with peptide only)
CC[C@H](C)[C@H](NC(=O)[C@H](CC(=O)O)NC(=O)[C@H](CCCCN)NC(=O)[C@H](Cc1ccccc1)NC(=O)[C@@H](NC(=O)[C@@H](NC(=O)[C@H](CCC(N)=O)NC(=O)[C@H](CC(=O)O)NC(=O)[C@@H](N)C(C)C)[C@@H](C)O)C(C)C)C(=O)N[C@@H](Cc1c[nH]c2ccccc12)C(=O)N[C@@H](Cc1c[nH]c2ccccc12)C(=O)N[C@@H](CCCNC(=N)N)C(=O)N[C@@H](CCSC)C(=O)N[C@@H](CCCCN)C(=O)N[C@@H](CCC(N)=O)C(=O)N[C@@H](Cc1c[nH]c2ccccc12)C(=O)N[C@@H](CCCCN)C(=O)N[C@@H](CCC(N)=O)C(=O)N[C@@H](CCCNC(=N)N)C(=O)N[C@H](C(=O)N[C@@H](CCCCN)C(=O)N[C@@H](CCCCN)C(=O)N[C@@H](CCCNC(=N)N)C(=O)N[C@@H](C)C(=O)N[C@@H](C)C(=O)N[C@@H](CCCCN)C(=O)N[C@@H](Cc1ccc(O)cc1)C(=O)N[C@@H](CC(N)=O)C(=O)N[C@H](C(=O)O)C(C)C)C(C)C [trCCL28-29] (H-VDQTVFKDIWWRMKQWKQRVKKRAAKYNV-OH; N-terminus and C-terminus assumed) | 12.5 µg/mL (≈ 3.34 µM) | 12.50 µg/mL (≈ 3.34 µM) | 25.00 µg/mL (≈ 6.69 µM) | 12.50 µg/mL (≈ 3.34 µM) | 25.00 µg/mL (≈ 6.69 µM) | 12.50 µg/mL (≈ 3.34 µM) | 12.50 µg/mL (≈ 3.34 µM) | 25.00 µg/mL (≈ 6.69 µM) | 25.00 µg/mL (≈ 6.69 µM) | 25.00 µg/mL (≈ 6.69 µM) | increased rapidly within 20 min |  |  |  |  |  |  |  |  | 
CC[C@H](C)[C@H](NC(=O)[C@H](C)NC(=O)[C@H](CCCCN)NC(=O)[C@H](CCSC)NC(=O)[C@H](CCCCN)NC(=O)[C@H](CC(C)C)NC(=O)[C@@H]1CCCN1C(=O)[C@H](C)N)C(=O)N[C@@H](CC(C)C)C(=O)N[C@@H](CCC(=O)O)C(=O)N[C@H](C(=O)N[C@H](C(=O)N[C@@H](Cc1c[nH]cn1)C(=O)N[C@@H](CCCNC(=N)N)C(=O)N[C@@H](CCCNC(=N)N)C(=O)N[C@@H](CCSC)C(=O)N[C@@H](CCCCN)C(=O)N[C@@H](CCC(N)=O)C(=O)N[C@@H](CC(N)=O)C(=O)N[C@@H](CCCCN)C(=O)N[C@@H](CCSC)C(=O)N[C@@H](CCCCN)C(=O)N[C@@H](C)C(=O)N[C@@H](C)C(=O)N[C@@H](Cc1ccccc1)C(=O)O)C(C)C)[C@@H](C)CC [smCCL27b-25] (H-APLKMKAILEIVHRRMKQNKMKAAF-OH; N-terminus and C-terminus assumed) | 25.00 µg/mL (≈ 8.46 µM) | >50.00 µg/mL | 25.00 µg/mL (≈ 8.46 µM) | 50.00 µg/mL (≈ 16.9 µM) | >50.00 µg/mL | 25.00 µg/mL (≈ 8.46 µM) | 25.00 µg/mL (≈ 8.46 µM) | 50.00 µg/mL (≈ 16.9 µM) | >50.00 µg/mL | 25.00 µg/mL (≈ 8.46 µM) | increased rapidly within 20 min |  |  |  |  |  |  |  |  | 
CC[C@H](C)[C@H](NC(=O)CN)C(=O)NCC(=O)N[C@@H](C)C(=O)N[C@H](C(=O)N[C@@H](CC(C)C)C(=O)N[C@@H](CCCCN)C(=O)N[C@H](C(=O)N[C@@H](CC(C)C)C(=O)N[C@H](C(=O)N[C@H](C(=O)NCC(=O)N[C@@H](CC(C)C)C(=O)N1CCC[C@H]1C(=O)N[C@@H](C)C(=O)N[C@@H](CC(C)C)C(=O)N[C@H](C(=O)N[C@@H](CO)C(=O)N[C@@H](Cc1c[nH]c2ccccc12)C(=O)N[C@H](C(=O)N[C@@H](CCCCN)C(=O)N[C@@H](CCCNC(=N)N)C(=O)N[C@@H](CCCCN)C(=O)N[C@@H](CCCNC(=N)N)C(=O)N[C@@H](CCC(N)=O)C(=O)N[C@@H](CCC(N)=O)C(N)=O)[C@@H](C)CC)[C@@H](C)CC)[C@@H](C)O)[C@@H](C)O)C(C)C)C(C)C [Melittin] |  |  |  |  |  |  |  |  |  |  |  | 6.25 µg/mL (≈ 2.2 µM) | 6.25 µg/mL (≈ 2.2 µM) | 6.25 µg/mL (≈ 2.2 µM) | 6.25 µg/mL (≈ 2.2 µM) | 6.25 µg/mL (≈ 2.2 µM) | 25.00 µg/mL (≈ 8.78 µM) | 50.00 µg/mL (≈ 17.6 µM) | 200.00 µg/mL (≈ 70.3 µM) | 6.25 µg/mL (≈ 2.2 µM)
